According to paper PMC11203719, “Mts1 (S100A4) and Its Peptide Demonstrate Cytotoxic Activity in Complex with Tag7 (PGLYRP1) Peptide” (International Journal of Molecular Sciences, 2024):
Entries after “also recorded” stand apart in the source; their conditions may differ. No end group written: not given here.

Legend:
[1] = system: TNFR1 on the surface of HEK293T cells; assay: Cross-linking (BS3) to TNFR1 on cell surface, anti-TNFR1 pull-down, Western blot; assay type: binding, human; details: 17.1-Mts1 at 1 nM, anti-TNFR1 beads
Protocol: We investigated the ability of peptide 17.1 to form a complex with Mts1 and TNFR1 on the cell surface. The 17.1-Mts1 complex was added to HEK293T cells with TNFR1s on their surface. After incubation, a crosslinking agent (BS^3) was added, forming covalent bonds between molecules located at a distance of less than 1 nm at the time of addition. Next, the cells were lysed, and membrane proteins were precipitated using anti-TNFR1 antibodies conjugated with magnetic beads. The obtained material was separated using SDS electrophoresis and detected using Western blotting with polyclonal antibodies to Mts1 or Tag7.
A column with CNBr-activated Sepharose 4B (GE Healthcare, Chicago, IL, USA) conjugated with 17.1 was prepared as described in accordance with the manufacture’s protocol. The recombinant Mts1 protein was loaded into a column with 17.1-Sepharose 4B. Then, the material was extensively washed with PBS plus 0.5 M NaCl, followed by PBS, eluted with 0.25 M triethylamine, pH 12. The eluted material was resolved using 12% SDS-PAGE and applied to a nitro-cellulose membrane. […] The chemiluminescence was recorded using iBright (Thermo Fisher Scientific, Boston, MA, USA). […] Protein concentrations were quantified using a Bradford assay kit (Thermo Fisher Scientific, Carlsbad, CA, USA). […]

Tag7-Hsp70 complex = details: excess of Mts1; ref [22]; cited from earlier work
Excerpt: (§1) During a study on the anticancer effect of the Tag7-Hsp70 complex on metastatic cells, the second partner of the Tag7 protein was identified. Tag7 interacts with Mts1 (metastasin 1, S100A4), a member of the S-100 family involved in metastasis processes. Both proteins form the Tag7-Mts1 chemotactic complex.

TNFR1 = details: cited from earlier work; for inhibition of cytotoxic effect of TNFR1 ligands: ref [19]
Excerpt: (§2) We investigated developing cytotoxic processes during TNFR1 activation and found two new proteins interacting with this receptor: the immune system regulator PGLYRP1 (Tag7) and DNA-hydrolyzing autoantibodies. […] For the manifestation of Tag7 cytotoxic action, the presence of a coactivator, stimulating cytotoxicity, is necessary. During antitumor studies, a cytotoxic complex released by human ... || Structural and functional analyses of Tag7 made it possible to localize the epitope of this protein necessary for interaction with TNFR1 and Hsp70. […] It was also possible to separate the activities of this bifunctional peptide.

Mts1 (S100A4) = molecular target: T1, Mts1 (S100A4) (Homo sapiens, UniProt P26447); assay: Microscale thermophoresis, binding to labeled Mts1
T1 construct: a functional fragment of the Tag7 protein (PGLYRP1) and a full-sized Mts1 protein (S100A4); His tag (from vector pQE-30; purified on HisTrap FF) (N); made in house; host or cells: Escherichia coli M15 (pREP4)
Protocol: To evaluate the protein–protein interaction of Mts1 with Tag7 and with peptides, 17.1, 17.1A, and 17.1B, a quantitative microscale thermophoresis method was used to reliably determine the parameters of the interaction of protein complexes.
To study the dissociation constant, purified Mts1 was fluorescently labeled using Alexa Fluor 633 (Invitrogen, Eugene, OR, USA) in accordance with the manufacturer’s protocol. Mts1 (200 nM) was preincubated for 20 min with Tag7-Mts1, 17.1-Mts1, 17.1A-Mts1, and 17.1B-Mts1 in the dark at room temperature in 16 different concentrations, obtained by sequential dilution. To study the dissociation constant of Tag7 with M7, Tag7 was fluorescently labeled using Alexa Fluor 488 (Invitrogen, Eugene, OR, USA) in accordance with the manufacturer’s protocol. Tag7 (200 nM) was preincubated for 20 min with M7 in the dark at room temperature in 16 different concentrations, obtained by sequential dilution. The samples were loaded into glass capillaries of Monolith NT Capillaries (NanoTemper Technologies GmbH, München, Germany) and analyzed by thermophoresis on a Monolith NT 115 nanotemperature apparatus (10% IR laser power). The signal quality was monitored using a NanoTemper Monolith device to detect possible ligand autofluorescence, deposition, aggregation, or ligand-induced changes in the photobleaching rate. The experiments were carried out in at least three repetitions and processed using affinity analysis software (MO Control v.1.6.1, NanoTemper Technologies GmbH, München, Germany).

L929 cells = assay: Cytotoxicity, L929 cells; assay type: cell-based; details: complexes of Mts1 with 17.1A, 17.1B or full-sized Tag7; L929 cells (Figure 2b), 24 h, n = 5
lymphocytes = details: ref [22]; cited from earlier work
Excerpt: as §1

[2] = system: TNFR1-positive tumor cells; details: cited from earlier work
Excerpt: as §2

Hsp70 = details: ref [19]; cited from earlier work
Excerpt: Structural and functional analyses of Tag7 made it possible to localize the epitope of this protein necessary for interaction with TNFR1 and Hsp70. […] It was also possible to separate the activities of this bifunctional peptide.

Mts1 = assay: Affinity chromatography on 17.1-Sepharose with Western blot for Mts1; assay type: binding, human; details: recombinant Mts1 100 ng, 17.1 immobilized on CNBr-activated Sepharose; eluted 0.25 M triethylamine; Mts1 eluted as tetramer
Protocol: In the previous section, we noted the competition between Hsp70 and Mts1 for the binding center of Tag7. We have shown that Hsp70 interacts with peptide 17.1, which is located at the C-terminal region of the polypeptide chain Tag7. […] The recombinant Mts1 protein (100 ng total protein, 0.1 mg/mL) was applied to CNBr-activated Sepharose with immobilized peptide 17.1. The bound proteins were eluted and analyzed using SDS-PAGE and a subsequent Western blot test with specific anti-Mts1 antibodies. It was shown that Mts1 is present in the eluate in the form of a tetramer (Figure 1).
A column with CNBr-activated Sepharose 4B (GE Healthcare, Chicago, IL, USA) conjugated with 17.1 was prepared as described in accordance with the manufacture’s protocol. The recombinant Mts1 protein was loaded into a column with 17.1-Sepharose 4B. Then, the material was extensively washed with PBS plus 0.5 M NaCl, followed by PBS, eluted with 0.25 M triethylamine, pH 12. The eluted material was resolved using 12% SDS-PAGE and applied to a nitro-cellulose membrane. […] The chemiluminescence was recorded using iBright (Thermo Fisher Scientific, Boston, MA, USA). […] Protein concentrations were quantified using a Bradford assay kit (Thermo Fisher Scientific, Carlsbad, CA, USA). […]

T1 sequence (P26447 whole entry, the tested form may be a part): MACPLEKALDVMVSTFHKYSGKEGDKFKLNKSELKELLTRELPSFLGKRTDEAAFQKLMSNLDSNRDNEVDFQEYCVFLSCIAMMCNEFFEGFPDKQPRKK

Substance: Mts1: recombinant human Mts1 (S100A4) protein
- interaction with TNFR1 on cell surface [1]: binds to the TNFR1 receptor on the cell surface
- displacement of Hsp70 from Tag7-Hsp70 complex (Tag7-Hsp70 complex): displaces Hsp70 from the Tag7-Hsp70 complex

Substance: Tag7: recombinant full-size Tag7 protein (PGLYRP1)
- inhibition of cytotoxic activity of TNF and other TNFR1 ligands (TNFR1; previous work, reference not clearly printed): acts as an inhibitor of the cytotoxic activity of TNF and other TNFR1 ligands
- affinity for Mts1 (in words) (Mts1 (S100A4)): significantly higher apparent Kd
- cytotoxic activity in complex with Mts1 (L929 cells): does not have a cytotoxic effect on cells; also recorded: does not form a cytotoxic complex with the Mts1 protein

Substance: RSNYVLKG [17.1A]
- inhibition of cytotoxic effect of TNFR1 ligands (TNFR1): responsible for binding to TNFR1 and inhibiting cytotoxicity
- affinity for Mts1 (in words) (Mts1 (S100A4)): significantly higher apparent Kd; also recorded: low affinity
- cytotoxic activity in complex with Mts1 (L929 cells): does not contribute to the appearance of cytotoxicity

Substance: Tag7-Mts1: complex of full-sized Tag7 with Mts1
- chemotactic activity (lymphocytes): induces the movement of lymphocytes along the concentration gradient of this complex
- cytotoxic activity ([2]; previous study, ref [22]): no cytotoxic activity
- Kd (Mts1 (S100A4); first-named partner titrated (16 concentrations) to Alexa Fluor 633-labeled Mts1 (200 nM), 20 min, room temperature, at least three repetitions, mean ± SD): 9.21 ± 1.5 µM

Substance: HRDVQRT [17.1B]
- affinity for Hsp70 (Hsp70): high affinity for Hsp70
- affinity for Mts1 (in words) (Mts1 (S100A4)): highly specific

Substance: SNYVLKGHRDVQ [17.1]
- inhibition of cytotoxic effect of TNFR1 ligands (TNFR1): inhibits the cytotoxic effect of TNFR1 ligands
- death of tumor cells in combination with Hsp70 ([2]; in combination with Hsp70, ref [19]): induces the death of tumor cells
- affinity for Mts1 (in words) (Mts1 (S100A4)): highly specific
- binding to Mts1 (Mts1): 17.1 binds to Mts
